Experimental data: publication PMC7604414, “Favipiravir at high doses has potent antiviral activity in SARS-CoV-2−infected hamsters, whereas hydroxychloroquine lacks activity” (Proceedings of the National Academy of Sciences of the …, 2020)

Tests used:
[1] = tested on: SARS-CoV-2; design: species or system Syrian hamsters; details: hamster, in vivo
[2] = tested on: SARS-CoV-2; design: method as in PMID 33741945; details: upon favipiravir treatment; cited from earlier work

NC(=O)c1nc(F)c[nH]c1=O [favipiravir]
increase in mean virus variants vs untreated hamsters [1]: 3.2 fold
increase of mean number of mutations in the viral RNA, factor [2]: more than three
